Legend:
biosimilar AVASTIN® = assay: Viscosity of aqueous solutions of biosimilar AVASTIN® with viscosity-lowering agents; type: physicochemical
REMICADE® [1] = assay: Monomer content of […]® solutions by size exclusion chromatography; type: physicochemical; conditions: 0.25M agent
Method: Biophysical properties of solutions of […]® formulated with 0.25 M CSAA were assessed over 90 days. Samples of […]® formulated with 0.25 M CSAA were prepared as described in Example 1 above.
(§1) Following reconstitution, the viscosity of each solution was measured using the microfluidic viscometer as described in previous examples. The solutions were then back-loaded into 1 mL BD insulin syringes with 27, 29, or 31 gauge fixed needles. The force required to extrude the concentrated […]® solutions was then measured using an Instron at a rate of displacement equivalent to a fluid flow rate of 3 mL/min. The expelled solution was collected from the syringe and analyzed by size-exclusion chromatography.

ARZERRA® = assay: Viscosity of aqueous solutions of ARZERRA® with viscosity-lowering agents; type: physicochemical; conditions: 274 ± 10 mg/mL ARZERRA; 0.25M agent; 25° C., pH 7.0
Excerpt: (§2) (unless otherwise indicated).

VECTIBIX® = assay: Viscosity of aqueous solutions of VECTIBIX® with viscosity-lowering agents; type: physicochemical; conditions: 0.25M agent, 25° C., pH 7.0
Excerpt: as §2

TYSABRI® = assay: Viscosity of aqueous solutions of TYSABRI® with viscosity-lowering agents; type: physicochemical; conditions: 0.25M agent, 25° C., pH 7.0
Method: All viscosities of well-mixed aqueous mAb solutions were measured using either a mVROC microfluidic viscometer (RheoSense) or a DV2T cone and plate viscometer (Brookfield; “C & P”) after a 5 minute equilibration at 25° C. […] The mVROC viscometer was equipped with an “A” or “B” chip, each manufactured with a 50 micron channel. Typically, 0.10 mL of protein solution was back-loaded into a gastight microlab instrument syringe (Hamilton; 100 μL), affixed to the chip, and measured at multiple flow rates, approximately 20%, 40%, and 60% of the maximum pressure for each chip. […] An average absolute viscosity and standard deviation was then calculated from at least these three measurements. The C & P viscometer was equipped with a CPE40 or CPE52 spindle (cone angle of 0.8° and 3.0°, respectively) and 0.50 mL samples were measured at multiple shear rates between 2 and 400 s^−1. Specifically, samples were measured for 30 seconds each at 22.58, 24.38, 26.25, 28.13, 30, 31.88, 45, 67.5, 90, 112.5, 135, 157.5, 180, 202.5, 247, 270, 292.5, 315, 337.5, 360, 382, 400 s^−1, starting at a shear rate that gave at least 10% torque, and continuing until instrument torque reached 100%. An extrapolated zero-shear viscosity was then determined from a plot of dynamic viscosity versus shear rate for the samples measured on a DV2T cone and plate viscometer. The extrapolated zero-shear viscosities reported are the average and standard deviation of at least three measurements.
(§3) Viscosities were measured using a RheoSense mVROC microfluidic viscometer equipped with an “A” or “B” chip.
(§4) Subsequently, the aqueous drug product was purified, buffer exchanged, concentrated, dried, reconstituted, and analyzed as described in the same manner. Viscosities reported were measured on a RheoSense mVROC microfluidic viscometer.

Sprague-Dawley rats = assay: Subcutaneous injection toxicity and irritation (Draize evaluation scores); type: in vivo, rat; conditions: 0.5 mL of 0.25 M CSAA subcutaneously, 1 to 3 daily injections
Method: Thirty 11-week old Sprague-Dawley rats were separated into 6 groups of 5 rats each (3 saline control groups and 3 CSAA groups). The rats were injected subcutaneously with 0.5 mL of either endotoxin-free phosphate-buffered saline or endotoxin-free 0.25 M CSAA according to the following schedule: One group from each condition was injected once on day 1 and then sacrificed […]; one group from each condition was injected once on day 1 and once on day 2 and then sacrificed 24 hours after the second injection; and one group from each condition was injected once on day 1, once on day 2, and once on day 3, and then sacrificed 24 hours after the third injection.
Clinical observations were recorded for any pharmaco-toxicological signs pre-dose, immediately post-dose, at 1 and 4 hours (±15 minutes) post-dose, and daily thereafter. Irritation, if any, at injection sites was scored using the Draize evaluation scores pre-dose, immediately post-dose, at 1 hour (±15 minutes) post dose, and prior to sacrifice.

REMICADE® [2] = assay: Monomer content of […]® solutions by size exclusion chromatography; type: physicochemical; conditions: storage at room temperature, CSAA sample: REMICADE 219 mg/mL, pH 7, 0.25M CSAA
REMICADE® [3] = assay: Syringe extrusion force of concentrated […]® solutions (Instron); type: physicochemical; conditions: 1 mL BD insulin syringe, 3 mL/min, REMICADE 224-230 mg/mL, 0.25M agent
Method: as §1

antigen = assay: Antigen binding, […]®-specific ELISA assay; conditions: storage at room temperature, CSAA sample: REMICADE 219 mg/mL, pH 7, 0.25M CSAA
Method: Biophysical properties of solutions of […]® formulated with 0.25 M CSAA were assessed over 90 days. Samples of […]® formulated with 0.25 M CSAA were prepared as described in Example 1 above. […] (Table 20). Additionally, antigen binding of this processed […]® protein was measured with a […]®-specific ELISA assay and no decrease in binding was seen between days 0 and […] (Table 20).

biosimilar RITUXAN® = assay: Viscosity of aqueous solutions of biosimilar RITUXAN® with viscosity-lowering agents; conditions: 202 ± 2 mg/mL RITUXAN; 0.25M agent; 25° C., pH 7.0;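 further: absolute viscosity of aqueous antibody solutions determined by microfluidic viscometry (mVROC chip, 50 micron channel) at several flow rates after 5 min equilibration, mean of at least three readings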
REMICADE® [4] = assay: Viscosity of aqueous solutions of […]® with viscosity-lowering agents; type: physicochemical
Method: as §2
An extrapolated zero-shear viscosity was determined from a plot of absolute viscosity versus shear rate.
as §1

HERCEPTIN® = assay: Viscosity of aqueous solutions of HERCEPTIN® with viscosity-lowering agents; type: physicochemical; conditions: 0.25M salt, 25° C., pH 7.0
Method: All viscosities of well-mixed aqueous mAb solutions were measured using either a mVROC microfluidic viscometer (RheoSense) or a DV2T cone and plate viscometer (Brookfield; “C & P”) after a 5 minute equilibration at 25° C. (unless otherwise indicated). The mVROC viscometer was equipped with an “A” or “B” chip, each manufactured with a 50 micron channel. Typically, 0.10 mL of protein solution was back-loaded into a gastight microlab instrument syringe (Hamilton; 100 μL), affixed to the chip, and measured at multiple flow rates, approximately 20%, 40%, and 60% of the maximum pressure for each chip. […] An average absolute viscosity and standard deviation was then calculated from at least these three measurements. The C & P viscometer was equipped with a CPE40 or CPE52 spindle (cone angle of 0.8° and 3.0°, respectively) and 0.50 mL samples were measured at multiple shear rates between 2 and 400 s^−1. Specifically, samples were measured for 30 seconds each at 22.58, 24.38, 26.25, 28.13, 30, 31.88, 45, 67.5, 90, 112.5, 135, 157.5, 180, 202.5, 247, 270, 292.5, 315, 337.5, 360, 382, 400 s^−1, starting at a shear rate that gave at least 10% torque, and continuing until instrument torque reached 100%. An extrapolated zero-shear viscosity was then determined from a plot of dynamic viscosity versus shear rate for the samples measured on a DV2T cone and plate viscometer. The extrapolated zero-shear viscosities reported are the average and standard deviation of at least three measurements.
as §3
Viscosities reported were measured on a RheoSense mVROC microfluidic viscometer.

biosimilar ERBITUX® = assay: Viscosity of aqueous solutions of biosimilar ERBITUX® with viscosity-lowering agents; conditions: for Viscosity / Fold Reduction: pH 7.0, 0.25M agent; for Fold Reduction: vs phosphate buffer
Method: All viscosities of well-mixed aqueous mAb solutions were measured using either a mVROC microfluidic viscometer (RheoSense) or a DV2T cone and plate viscometer (Brookfield; “C & P”) after a 5 minute equilibration at 25° C. (unless otherwise indicated). The mVROC viscometer was equipped with an “A” or “B” chip, each manufactured with a 50 micron channel. Typically, 0.10 mL of protein solution was back-loaded into a gastight microlab instrument syringe (Hamilton; 100 μL), affixed to the chip, and measured at multiple flow rates, approximately 20%, 40%, and 60% of the maximum pressure for each chip. […] An average absolute viscosity and standard deviation was then calculated from at least these three measurements. The C & P viscometer was equipped with a CPE40 or CPE52 spindle (cone angle of 0.8° and 3.0°, respectively) and 0.50 mL samples were measured at multiple shear rates between 2 and 400 s^−1. […] An extrapolated zero-shear viscosity was then determined from a plot of dynamic viscosity versus shear rate for the samples measured on a DV2T cone and plate viscometer. The extrapolated zero-shear viscosities reported are the average and standard deviation of at least three measurements.
First, Polysorbate 80 was removed using DETERGENT-OUT® TWEEN® Medi Columns (G-Biosciences). […] The collected protein solution was freeze-dried. The dried protein cakes, containing protein and buffer salts or agent, were reconstituted to a final volume of 0.15-1.3 mL. […] Reported protein concentrations represent the range of all protein samples included in each Table or Figure. Specifically, reported values are the median plus or minus half the range. Extrapolated zero-shear using an experimentally determined extinction coefficient of 1.4 L/g·cm and viscosities reported were measured on a DV2T cone and plate viscometer.
The final concentration of CSAL upon reconstitution in an aqueous CSAL solution ranged from 0.25 M to 0.50 M.
Specifically, 20 mM solutions of the viscosity-lowering agents of interest were used for buffer exchange, and the lyophilized cakes were reconstituted to 0.25 M of each viscosity-lowering agent. […] The sample was first aliquoted. […] The dried protein cakes, containing protein and viscosity-lowering agent (and a negligible amount of buffer salts) were reconstituted to a final volume of approximately 0.10 mL and viscosity-lowering agent concentration as previously described.
First, Polysorbate was removed from the commercially obtained mAb solutions.
Specifically, 20 mM solutions of the salts of interest were used for buffer exchange, and the lyophilized cakes were reconstituted to contain 0.25 M of each agent. Viscosities were measured using either a RheoSense mVROC microfluidic viscometer equipped with an “A” or “B” chip or a DV2T cone and plate viscometer.
as §4

With camphorsulfonic acid arginine [CSAA] the Viscosity (biosimilar AVASTIN®; 200 ± 5 mg/mL mAb, pH 7.0, 25° C., [Salt] 0.25 M of anion, C & P viscometer) was 48.5 ± 1.9 cP, the “pH of minimum viscosity and maximum viscosity-lowering effect” value (biosimilar AVASTIN®; 200±9 mg/mL mAb, 0.25 M CSAA, FIG. 3) was about 7 and the Viscosity (biosimilar AVASTIN®; 228 ± 5 mg/mL mAb, agent 0.25 M, 25° C., pH 7.0) was 116 ± 2 cP. The “% Monomer” value (REMICADE® [1]; expelled through 27 gauge needle, REMICADE 224-230 mg/mL (per agent)) was 99.5 ± 0.1%, the “% Monomer” value (REMICADE® [1]; expelled through 29 gauge needle, REMICADE 224-230 mg/mL (per agent)) was 99.4 ± 0.2% and the “% Monomer” value (REMICADE® [1]; expelled through 31 gauge needle, REMICADE 224-230 mg/mL (per agent)) was 99.5 ± 0.2%. The “% Monomer” value (REMICADE® [1]; pre-syringe, REMICADE 220-230 mg/mL (per agent)) was 99.7 ± 0.3%, the Viscosity (ARZERRA®) was 125 ± 7 cP and the Viscosity (VECTIBIX®; 264 mg/mL VECTIBIX) was 44.3 ± 2.3 cP. The Viscosity (VECTIBIX®; 233 ± 4 mg/mL VECTIBIX) was 26.2 ± 6.5 cP, the Viscosity (VECTIBIX®; 252 ± 3 mg/mL VECTIBIX) was 27.4 ± 1.2 cP and the Viscosity (VECTIBIX®; 291 ± 3 mg/mL VECTIBIX) was 162 ± 1 cP. For the same substance, the Viscosity (TYSABRI®; 237 ± 4 mg/mL TYSABRI) was 47.1 ± 2.1 cP, the Viscosity (TYSABRI®; 276 ± 8 mg/mL TYSABRI) was 92.9 ± 2.6 cP and the “Microscopic examination of injection sites” value (Sprague-Dawley rats; no longer evident by day 4) was “very minor, clinically insignificant, irritative effect”. The “Observed consequences of the injections compared with saline” value (Sprague-Dawley rats; throughout the study) was “macroscopically similar”, the “Edema scores (Draize) at injection sites” value (Sprague-Dawley rats; various time points) was 0-2 and the “% Monomer” value (REMICADE® [2]; day 0) was 99.9 ± 0.1%. For the same substance, the “% Monomer” value (REMICADE® [2]; day 4) was 97.9 ± 0%, the “% Monomer” value (REMICADE® [2]; day 7) was 100 ± 0% and the “Syringe Force” value (REMICADE® [3]; 27 gauge needle) was 18.4 N. The “Syringe Force” value (REMICADE® [3]; 29 gauge needle) was 24.9 N, the “Syringe Force” value (REMICADE® [3]; 31 gauge needle) was 33.0 N and the “% binding (normalized to drug product)” value (antigen; day 0) was 88.6 ± 5.2%. For the same substance, the “% binding (normalized to drug product)” value (antigen; day 7) was 114 ± 2.4%, the Viscosity (biosimilar RITUXAN®) was 78.4 ± 0.3 and the Viscosity (REMICADE® [4]; 128 mg/mL REMICADE, isotonic (0.3 molal) excipient) was 25.8 ± 0.8 cP. The Viscosity reduction (REMICADE® [4]; 0.25M agent vs PB, Table 17) was “about 29 fold”, the Viscosity (REMICADE® [4]; 166 ± 4 mg/mL REMICADE, 0.25M agent, 25° C., pH 7.0) was 19.1 ± 0.2 cP and the Viscosity (REMICADE® [4]; 215 ± 5 mg/mL REMICADE, [CSAA] 0 M, 25° C., pH 7.0) was 1557 ± 22 cP. The Viscosity (REMICADE® [4]; 215 ± 5 mg/mL REMICADE, [CSAA] 0.20 M, 25° C., pH 7.0) was 81.3 ± 1.0 cP, the Viscosity (REMICADE® [4]; 215 ± 5 mg/mL REMICADE, [CSAA] 0.25 M, 25° C., pH 7.0) was 53.7 ± 9.3 cP and the Viscosity (REMICADE® [4]; 215 ± 5 mg/mL REMICADE, [CSAA] 0.35 M, 25° C., pH 7.0) was 38.2 ± 0.9 cP. The Viscosity (REMICADE® [4]; 222 ± 6 mg/mL REMICADE, 0.25M agent, 25° C., pH 7.0) was 53.7 ± 9.3 cP, the Viscosity (HERCEPTIN®; 216 ± 0 mg/mL HERCEPTIN) was 55.7 ± 2.3 cP and the Viscosity (HERCEPTIN®; 254 ± 3 mg/mL HERCEPTIN) was 78.0 ± 8.7 cP. The Viscosity (HERCEPTIN®; 270 ± 6 mg/mL HERCEPTIN) was 96.7 ± 4.7 cP, the “pH of viscosity minimum” value (biosimilar ERBITUX®; 0.25 M CSAA, 202±5, 229±5, 253±4 mg/mL mAb, 25° C., FIG. 5) was about 7.0 and the Viscosity (biosimilar ERBITUX®; 222 ± 5 mg/mL mAb, 25° C.) was 52.5 ± 1.0 cP. For the same substance, the Viscosity (biosimilar ERBITUX®; 225 ± 5 mg/mL mAb, 20° C.) was 79.6 ± 0.9 cP, the Viscosity (biosimilar ERBITUX®; 225 ± 5 mg/mL mAb, 25° C.) was 58.0 ± 0.3 cP and the Viscosity (biosimilar ERBITUX®; 225 ± 5 mg/mL mAb, 30° C.) was 46.9 ± 0.6 cP. For the same substance, the “Fold Reduction” value (biosimilar ERBITUX®; 222 ± 5 mg/mL mAb, 25° C.) was 21.5 fold and the “Fold Reduction” value (biosimilar ERBITUX®; 222 ± 5 mg/mL mAb, 25° C., listed as CSA Arginine) was 21.5 fold.

Reference: patent US9925263B2, “Liquid pharmaceutical formulations for injection comprising procaine and uses thereof” (EAGLE BIOLOGICS, INC., priority 2013, dated 2018)
